Reference: ChEMBL document CHEMBL1909046, “DrugMatrix in vitro pharmacology data”

Experiments:
Progesterone receptor = molecular target: T1, Progesterone receptor (Bos taurus, UniProt Q690N0); experiment: DRUGMATRIX: Progesterone radioligand binding (ligand: [3H] R-5020); type: tissue-based, Uterus; conditions: Not Active = under 50% inhibition at 10 µM
T1 sequence (Q690N0 whole entry): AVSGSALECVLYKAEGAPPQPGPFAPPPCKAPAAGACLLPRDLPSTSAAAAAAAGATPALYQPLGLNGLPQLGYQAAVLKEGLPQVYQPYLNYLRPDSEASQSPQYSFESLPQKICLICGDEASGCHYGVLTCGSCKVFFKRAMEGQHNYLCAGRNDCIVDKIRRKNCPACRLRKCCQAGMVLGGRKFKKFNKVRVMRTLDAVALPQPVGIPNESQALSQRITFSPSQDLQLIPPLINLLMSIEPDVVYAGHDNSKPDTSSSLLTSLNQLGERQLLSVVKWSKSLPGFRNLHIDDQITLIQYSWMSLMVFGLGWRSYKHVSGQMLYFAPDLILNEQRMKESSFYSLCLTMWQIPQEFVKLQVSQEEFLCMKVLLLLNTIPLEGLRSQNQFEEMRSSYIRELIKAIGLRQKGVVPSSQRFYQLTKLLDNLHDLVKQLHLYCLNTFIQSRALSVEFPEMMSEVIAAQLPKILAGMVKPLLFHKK

[1] = DRUGMATRIX: Phorbol Ester radioligand binding (ligand: [3H] PDBu); type: cell membranes, Mus musculus, ICR, Brain, Membrane; conditions: Not Active = under 50% inhibition at 10 µM
[2] = molecular target: Tyrosine-protein kinase Fyn (Homo sapiens, UniProt P06241); experiment: biochemical; type: cell-based, Insect cells;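 further: enzymatic inhibition of Fyn kinase activity measured with Poly(Glu:Tyr) as the phosphorylation substrate; in other assays of this panel Not Active means under 50% inhibition at 10 µM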
[3] = DRUGMATRIX: Glutamate, NMDA, Agonism radioligand binding (ligand: [3H] CGP-39653); type: cell membranes, Rattus norvegicus, Wistar, Cerebral cortex, Membrane; conditions: Not Active = under 50% inhibition at 10 µM
[4] = molecular target: T2, Alpha-1B adrenergic receptor (Rattus norvegicus, UniProt P15823); experiment: DRUGMATRIX: Alpha-1B adrenergic receptor radioligand binding (ligand: prazosin); type: cell membranes, Wistar, Liver, Membrane; conditions: Not Active = under 50% inhibition at 10 µM
T2 sequence (P15823 whole entry): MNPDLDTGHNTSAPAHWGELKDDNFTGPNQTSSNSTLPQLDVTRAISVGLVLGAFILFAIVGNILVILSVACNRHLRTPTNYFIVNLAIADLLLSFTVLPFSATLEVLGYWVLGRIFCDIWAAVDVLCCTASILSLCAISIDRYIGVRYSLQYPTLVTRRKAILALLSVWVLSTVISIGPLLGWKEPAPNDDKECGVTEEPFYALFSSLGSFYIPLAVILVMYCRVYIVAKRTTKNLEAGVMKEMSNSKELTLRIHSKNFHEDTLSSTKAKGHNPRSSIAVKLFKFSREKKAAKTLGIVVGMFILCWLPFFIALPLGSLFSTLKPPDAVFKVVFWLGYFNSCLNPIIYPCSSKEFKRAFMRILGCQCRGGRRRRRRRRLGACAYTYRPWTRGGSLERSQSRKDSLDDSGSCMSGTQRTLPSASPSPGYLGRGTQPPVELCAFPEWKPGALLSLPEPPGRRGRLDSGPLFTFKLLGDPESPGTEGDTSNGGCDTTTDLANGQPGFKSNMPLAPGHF

[5] = molecular target: Sodium-dependent noradrenaline transporter (Homo sapiens, UniProt P23975); experiment: DRUGMATRIX: Norepinephrine Transporter radioligand binding (ligand: [125I] RTI-55); type: cell membranes, MDCK, Membrane; conditions: Not Active = under 50% inhibition at 10 µM
Chain of Sodium-dependent noradrenaline transporter (P23975 whole entry): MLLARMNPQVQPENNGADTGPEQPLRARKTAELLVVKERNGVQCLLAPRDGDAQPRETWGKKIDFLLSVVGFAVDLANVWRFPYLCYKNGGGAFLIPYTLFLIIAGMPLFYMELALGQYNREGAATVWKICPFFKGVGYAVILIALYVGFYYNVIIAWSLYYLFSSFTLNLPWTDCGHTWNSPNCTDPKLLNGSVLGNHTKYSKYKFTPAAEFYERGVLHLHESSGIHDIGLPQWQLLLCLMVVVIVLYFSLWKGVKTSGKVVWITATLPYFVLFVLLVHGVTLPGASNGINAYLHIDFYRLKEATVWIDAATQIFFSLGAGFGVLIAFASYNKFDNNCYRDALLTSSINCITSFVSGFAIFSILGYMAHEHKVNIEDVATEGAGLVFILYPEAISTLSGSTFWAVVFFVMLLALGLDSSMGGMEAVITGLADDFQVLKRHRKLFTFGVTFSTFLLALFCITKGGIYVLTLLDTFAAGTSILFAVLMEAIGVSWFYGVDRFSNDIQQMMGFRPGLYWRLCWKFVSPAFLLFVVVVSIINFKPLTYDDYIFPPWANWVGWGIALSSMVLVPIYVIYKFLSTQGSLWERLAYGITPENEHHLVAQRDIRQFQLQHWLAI

Chain of Tyrosine-protein kinase Fyn (P06241 whole entry): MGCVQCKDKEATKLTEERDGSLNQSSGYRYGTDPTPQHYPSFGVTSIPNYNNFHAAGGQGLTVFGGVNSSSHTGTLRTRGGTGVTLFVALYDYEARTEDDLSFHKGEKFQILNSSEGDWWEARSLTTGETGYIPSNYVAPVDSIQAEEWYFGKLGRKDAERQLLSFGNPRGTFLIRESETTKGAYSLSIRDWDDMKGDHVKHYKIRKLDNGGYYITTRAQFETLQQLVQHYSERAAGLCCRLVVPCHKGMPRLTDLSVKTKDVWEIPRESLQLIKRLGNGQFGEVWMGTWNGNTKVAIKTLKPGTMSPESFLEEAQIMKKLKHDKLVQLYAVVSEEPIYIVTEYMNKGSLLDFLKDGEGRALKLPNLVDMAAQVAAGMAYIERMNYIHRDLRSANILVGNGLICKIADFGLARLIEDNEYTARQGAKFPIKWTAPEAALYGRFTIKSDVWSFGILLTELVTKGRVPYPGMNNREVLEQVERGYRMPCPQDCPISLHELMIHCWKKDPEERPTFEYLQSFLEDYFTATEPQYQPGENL

Row | Compound | IC50 (Progesterone receptor) | IC50 [1] | Ki [1] | IC50 ([2]; insect cells) | IC50 [3] | Ki [3] | IC50 [4] | IC50 ([5]; mdck) | IC50 (Progesterone receptor; read-out: IC50) [nM] | Ki (Progesterone receptor; read-out: Ki) [nM] | IC50 ([2]; read-out: IC50) [nM] | IC50 ([5]; read-out: IC50) [nM] | Ki ([5]; read-out: Ki) [nM] | Ki (Progesterone receptor) | IC50 ([2]; insect cells, read-out: IC50) [nM] | Ki [4] | Ki ([5]; mdck) | Ki ([2]; insect cells)
1 | COC1=C(OC)C(=O)C(CCCCCCCCCCO)=C(C)C1=O [IDEBENONE] | Not Active | Not Active | Not Active | Not Active | Not Active | Not Active | Not Active | Not Active | – | – | – | – | – | – | – | – | – | –
2 | CC(C)NNC(=O)c1ccncc1 [IPRONIAZID] | Not Active | Not Active | Not Active | Not Active | Not Active | Not Active | Not Active | Not Active | – | – | – | – | – | – | – | – | – | –
3 | Cc1c(OCC(F)(F)F)ccnc1C[S+]([O-])c1nc2ccccc2[nH]1 (configuration not stated) [LANSOPRAZOLE] | Not Active | Not Active | Not Active | Not Active | Not Active | Not Active | Not Active | Not Active | – | – | – | – | – | – | – | – | – | –
4 | O=c1cc(N2CCOCC2)oc2c(-c3ccccc3)cccc12 [LY-294002] | Not Active | Not Active | Not Active | Not Active | Not Active | Not Active | Not Active | Not Active | – | – | – | – | – | – | – | – | – | –
5 | COc1ccc2[nH]cc(CCNC(C)=O)c2c1 [MELATONIN] | Not Active | Not Active | Not Active | Not Active | Not Active | Not Active | Not Active | Not Active | – | – | – | – | – | – | – | – | – | –
6 | NC(=O)C[S+]([O-])C(c1ccccc1)c1ccccc1 (configuration not stated) [MODAFINIL] | Not Active | Not Active | Not Active | Not Active | Not Active | Not Active | Not Active | Not Active | – | – | – | – | – | – | – | – | – | –
7 | CCN(CC)CCOCCC1=CCC2CC1C2(C)C (configuration not stated) [MYRTECAINE] | Not Active | Not Active | Not Active | Not Active | Not Active | Not Active | Not Active | Not Active | – | – | – | – | – | – | – | – | – | –
8 | O=C(O)c1cccnc1Nc1cccc(C(F)(F)F)c1 [NIFLUMIC ACID] | Not Active | Not Active | Not Active | Not Active | Not Active | Not Active | Not Active | Not Active | – | – | – | – | – | – | – | – | – | –
9 | O=C(N/N=C/c1ccc([N+](=O)[O-])o1)c1cc([N+](=O)[O-])cc([N+](=O)[O-])c1O [NIFURSOL] | Not Active | Not Active | Not Active | Not Active | Not Active | Not Active | Not Active | Not Active | – | – | – | – | – | – | – | – | – | –
10 | COC(=O)Nc1nc2ccc(C(=O)c3cccs3)cc2[nH]1 [NOCODAZOLE] | Not Active | Not Active | Not Active | Not Active | Not Active | Not Active | Not Active | Not Active | – | – | – | – | – | – | – | – | – | –
11 | C#CC1(O)CC[C@H]2[C@@H]3CCC4=CC(=O)CC[C@@H]4[C@H]3CC[C@@]21CC (some centres not stated) [NORGESTREL] | – | Not Active | Not Active | Not Active | Not Active | Not Active | Not Active | Not Active | 3.51 | 0.458 | – | – | – | – | – | – | – | –
12 | COC(=O)Nc1nc2ccc([S+]([O-])c3ccccc3)cc2[nH]1 (configuration not stated) [OXFENDAZOLE] | Not Active | Not Active | Not Active | Not Active | Not Active | Not Active | Not Active | Not Active | – | – | – | – | – | – | – | – | – | –
13 | CC(=O)O[C@H]1C(=O)[C@@]2(C)[C@H]([C@H](OC(=O)c3ccccc3)[C@]3(O)C[C@H](OC(=O)[C@H](O)[C@@H](NC(=O)c4ccccc4)c4ccccc4)C(C)=C1C3(C)C)[C@]1(OC(C)=O)CO[C@@H]1C[C@@H]2O [PACLITAXEL] | Not Active | Not Active | Not Active | – | Not Active | Not Active | Not Active | Not Active | – | – | 23900 | – | – | – | – | – | – | –
14 | C[n+]1ccc(-c2cc[n+](C)cc2)cc1.[Cl-].[Cl-] [PARAQUAT DICHLORIDE] | Not Active | Not Active | Not Active | Not Active | Not Active | Not Active | Not Active | Not Active | – | – | – | – | – | – | – | – | – | –
15 | CCn1cc(C(=O)O)c(=O)c2cnc(N3CCCC3)nc21 [PIROMIDIC ACID] | Not Active | Not Active | Not Active | Not Active | Not Active | Not Active | Not Active | Not Active | – | – | – | – | – | – | – | – | – | –
16 | C[n+]1ccccc1/C=N/O.[Cl-] [PRALIDOXIME CHLORIDE] | Not Active | Not Active | Not Active | Not Active | Not Active | Not Active | Not Active | Not Active | – | – | – | – | – | – | – | – | – | –
17 | C[C@]12C=CC(=O)C=C1CC[C@@H]1[C@@H]2[C@@H](O)C[C@@]2(C)[C@H]1CC[C@]2(O)C(=O)CO [PREDNISOLONE] | Not Active | Not Active | Not Active | Not Active | Not Active | Not Active | Not Active | Not Active | – | – | – | – | – | – | – | – | – | –
18 | CC(=O)[C@H]1[C@H](C#N)C[C@H]2[C@@H]3CC=C4C[C@@H](O)CC[C@]4(C)[C@H]3CC[C@@]21C [PREGNENOLONE CARBONITRILE] | Not Active | Not Active | Not Active | Not Active | Not Active | Not Active | Not Active | Not Active | – | – | – | – | – | – | – | – | – | –
19 | CCCN(CCC)S(=O)(=O)c1ccc(C(=O)O)cc1 [PROBENECID] | Not Active | Not Active | Not Active | Not Active | Not Active | Not Active | Not Active | Not Active | – | – | – | – | – | – | – | – | – | –
20 | CCCOc1ccc(C(=O)OCCN(CC)CC)cc1N [PROPARACAINE] | Not Active | Not Active | Not Active | Not Active | Not Active | Not Active | Not Active | Not Active | – | – | – | – | – | – | – | – | – | –
21 | CC(C)c1cccc(C(C)C)c1O [PROPOFOL] | Not Active | Not Active | Not Active | Not Active | Not Active | Not Active | Not Active | – | – | – | – | 9390 | 9320 | – | – | – | – | –
22 | C[C@@H]1O[C@@H](O[C@@H]2C=C3CC[C@@H]4[C@H](CC[C@]5(C)[C@@H](c6ccc(=O)oc6)CC[C@]45O)[C@@]3(C)CC2)[C@H](O)[C@H](O)[C@H]1O [PROSCILLARIDIN] | Not Active | Not Active | Not Active | Not Active | Not Active | Not Active | Not Active | Not Active | – | – | – | – | – | – | – | – | – | –
23 | Oc1cccc(O)c1O [PYROGALLOL] | Not Active | Not Active | Not Active | – | Not Active | Not Active | Not Active | Not Active | – | – | 997 | – | – | – | – | – | – | –
24 | AURANOFIN | Not Active | Not Active | Not Active | – | Not Active | Not Active | Not Active | Not Active | – | – | – | – | – | Not Active | 1200 | Not Active | Not Active | –
25 | GADOPENTETATE DIMEGLUMINE | Not Active | Not Active | Not Active | Not Active | Not Active | Not Active | Not Active | Not Active | – | – | – | – | – | Not Active | – | Not Active | Not Active | Not Active
26 | GENTAMICIN | Not Active | Not Active | Not Active | Not Active | Not Active | Not Active | Not Active | Not Active | – | – | – | – | – | Not Active | – | Not Active | Not Active | Not Active
27 | GRAMICIDIN | Not Active | Not Active | Not Active | – | Not Active | Not Active | Not Active | Not Active | – | – | – | – | – | Not Active | 3330 | Not Active | Not Active | –
